system: Cyclin-dependent kinase; test: Cyclin-dependent kinase inhibition, % inhibition at 10 nM (library Examples 99-270); assay type: biochemical; conditions: 10 nM compound
Procedure, shortened: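 Radiometric filter assay: kinase transfers ³²P/³³P from 25 μM ATP to a protein substrate in pH 7.4 HEPES buffer with MgCl2, 2% DMSO, 30° C, 20 min. EDTA stop; substrate captured on nitrocellulose or phosphocellulose membrane, washed with phosphoric acid, counted by phosphorimager.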

Point of comparison: `CCNCc1cncc(-c2ccc3[nH]nc(-c4ncc(C(=O)N5CCC(O)(CN6CCOCC6)CC5)[nH]4)c3c2)c1C` [Example 266, 1-{[2-(5-{5-[(ethylamino)methyl]-4-methylpyridin-3-yl}-1H-indazol-3-yl)-1H-imidazol-5-yl]carbonyl}-4-(morpholin-4-ylmethyl)piperidin-4-ol], “% Inhib @ 10 nM” value 18%. Against it:
- CCNCc1cncc(-c2ccc3[nH]nc(-c4ncc(C(=O)N5CCCC(Cc6ncccn6)CC5)[nH]4)c3c2)c1C (stereo not drawn) [Example 261, ethyl({4-methyl-5-[3-(5-{[4-(pyrimidin-2-ylmethyl)azepan-1-yl]carbonyl}-1H-imidazol-2-yl)-1H-indazol-5-yl]pyridin-3-yl}methyl)amine] — higher, 30%
- CCNCc1cncc(-c2ccc3[nH]nc(-c4ncc(C(=O)N5CCC(Cc6cccc(CO)c6)CC5)[nH]4)c3c2)c1C [Example 262, (3-[(1-{[2-(5-{5-[(ethylamino)methyl]-4-methylpyridin-3-yl}-1H-indazol-3-yl)-1H-imidazol-5-yl]carbonyl}piperidin-4-yl)methyl]phenyl}methanol] — higher, 59%
- CCNCc1cncc(-c2ccc3[nH]nc(-c4ncc(C(=O)N5CCC(Cc6ccc(C(N)=O)cc6)CC5)[nH]4)c3c2)c1C [Example 263, 4-[(1-{[2-(5-{5-[(ethylamino)methyl]-4-methylpyridin-3-yl}-1H-indazol-3-y)-1H-imidazol-5-yl]carbonyl}piperidin-4-yl)methyl]benzamide] — higher, 69%
- CCNCc1cncc(-c2ccc3[nH]nc(-c4ncc(C(=O)NCCc5nnc(-c6cnccn6)o5)[nH]4)c3c2)c1C [Example 264] — higher, 29%
- CCNCc1cncc(-c2ccc3[nH]nc(-c4ncc(C(=O)N5CCCC(O)(Cn6cccn6)CC5)[nH]4)c3c2)c1C (stereo not drawn) [Example 265, 1-{[2-(5-{5-[(ethylamino)methyl]-4-methylpyridin-3-yl}-1H-indazol-3-yl)-1H-imidazol-5-yl]carbonyl}-4-(1H-pyrazol-1-ylmethyl)azepan-4-ol] — higher, 29%
- CCNCc1cncc(-c2ccc3[nH]nc(-c4ncc(C(=O)N5CCCC(O)(CN6CCCC6=O)CC5)[nH]4)c3c2)c1C (stereo not drawn) [Example 267, 1-[(1-{[2-(5-{5-[(ethylamino)methyl]-4-methylpyridin-3-yl}-1H-indazol-3-yl)-1H-imidazol-5-yl]carbonyl}-4-hydroxyazepan-4-yl)methyl]pyrrolidin-2-one] — higher, 21%
- CCNCc1cncc(-c2ccc3[nH]nc(-c4ncc(C(=O)N5CCCC(O)(CN6CCOCC6)CC5)[nH]4)c3c2)c1C (stereo not drawn) [Example 268] — lower, 15%
- CCNCc1cncc(-c2ccc3[nH]nc(-c4ncc(C(=O)N5CCCC(COCC6CC6)C5)[nH]4)c3c2)c1C (stereo not drawn) [Example 269, [(5-(3-[5-({3-[(cyclopropylmethoxy)methyl]piperidin-1-yl}carbonyl)-1H-imidazol-2-yl]-1H-indazol-5-yl}-4-methylpyridin-3-yl)methyl]ethylamine] — higher, 34%
- CCNCc1cncc(-c2ccc3[nH]nc(-c4ncc(C(=O)NCCc5nnc(CC(C)C)o5)[nH]4)c3c2)c1C [Example 270, 2-(5-{5-[(ethylamino)methyl]-4-methylpyridin-3-yl}-1H-indazol-3-yl)-N-[2-(5-isobutyl-1,3,4-oxadiazol-2-yl)ethyl]-1H-imidazole-5-carboxamide] — higher, 27%

target: T1, CDK2/Cyclin A (Homo sapiens, UniProt P24941); test: Inhibition of CDK2/Cyclin A retinoblastoma kinase activity (apparent Ki); assay type: biochemical; conditions: read-out: CDK2 Ki
T1 construct: made in house; host or cells: CDK2: insect cells (baculovirus); cyclin A: E. coli
Description: Cyclin-dependent kinase activity was measured by quantifying the enzyme-catalyzed, time-dependent incorporation of radioactive phosphate from [^32P]ATP or [^33P]ATP into a protein substrate. […] Reactions were initiated with enzyme, incubated at 30° C., and terminated after 20 minutes by the addition of ethylenediaminetetraacetic acid (EDTA) to 250 mM. […] Radioactivity was quantified by exposing the dried membranes to a phosphorimager.
Apparent Ki values were measured by assaying enzyme activity in the presence of different inhibitor compound concentrations and subtracting the background radioactivity measured in the absence of enzyme. Inhibition data were fit to an equation for competitive inhibition using Kaleidagraph (Synergy Software), or were fit to an equation for competitive tight-binding inhibition using the software KineTic (BioKin, Ltd.).
A complex of CDK2 and proteolyzed cyclin A was prepared and purified by gel filtration. […] Ki values were measured as described above.

First: CCNCc1cncc(-c2ccc3[nH]nc(-c4nc(-c5ccccc5)c(C(=O)NC)[nH]4)c3c2)c1C [Example 6, 2-[5-(5-Ethylaminomethyl-4-methyl-pyridin-3-yl)-1H-indazol-3-yl]-5-phenyl-3H-imidazole-4-carboxylic acid methylamide]
Second: CCNCc1cncc(-c2ccc3[nH]nc(-c4nc(-c5ccccc5)c(C(=O)NCCN(C)C)[nH]4)c3c2)c1C [Example 16, 2-[5-(5-Ethylaminomethyl-4-methyl-pyridin-3-yl)-1H-indazol-3-yl]-5-phenyl-3H-imidazole-4-carboxylic acid (2-dimethylamino-ethyl)-amide]
The Ki of the first is lower: 0.05 to 0.2 µM for the first, > 0.2 µM for the second. The first binds more tightly here.

`CCNCc1cncc(-c2ccc3[nH]nc(-c4nc(-c5ccccc5)c(C(=O)NC5CCCCC5)[nH]4)c3c2)c1C` [Example 12, 2-[5-(5-Ethylaminomethyl-4-methyl-pyridin-3-yl)-1H-indazol-3-yl]-5-phenyl-3H-imidazole-4-carboxylic acid cyclohexylamide] and `CCNCc1cncc(-c2ccc3[nH]nc(-c4nc(-c5ccccc5)c(C(=O)NCCCO)[nH]4)c3c2)c1C` [Example 17, 2-[5-(5-Ethylaminomethyl-4-methyl-pyridin-3-yl)-1H-indazol-3-yl]-5-phenyl-3H-imidazole-4-carboxylic acid (3-hydroxy-propyl)-amide] fall in the same range of Ki: 0.05 to 0.2 µM for the first, 0.05 to 0.2 µM for the second.

Going from `CCNCc1cncc(-c2ccc3[nH]nc(-c4nc(-c5ccccc5)c(C(=O)NCCCCO)[nH]4)c3c2)c1C` [Example 18, 2-[5-(5-Ethylaminomethyl-4-methyl-pyridin-3-yl)-1H-indazol-3-yl]-5-phenyl-3H-imidazole-4-carboxylic acid (4-hydroxy-butyl)-amide] to `CCNCc1cncc(-c2ccc3[nH]nc(-c4nc(C(=O)NCc5ccccn5)c[nH]4)c3c2)c1C` [Example 52, 2-(5-{5-[(ethylamino)methyl]-4-methylpyridin-3-yl}-1H-indazol-3-yl)-N-(pyridin-2-ylmethyl)1H-imidazole-5-carboxamide], the Ki falls from > 0.2 µM to < 0.05 µM.

`CCNCc1cncc(-c2ccc3[nH]nc(-c4nc5c([nH]4)CCCC5)c3c2)c1C` [Example 21, Ethyl-{4-methyl-5-[3-(4,5,6,7-tetrahydro-1H-benzoimidazol-2-yl)-1H-indazol-5-yl]-pyridin-3-ylmethyl}-amine] and `Cc1c(N)cncc1-c1ccc2[nH]nc(-c3nc4c([nH]3)CCCC4)c2c1` [Example 36, 4-Methyl-5-[3-(4,5,6,7-tetrahydro-1H-benzoimidazol-2-yl)-1H-indazol-5-yl]-pyridin-3-ylamine] cannot be ordered by Ki: < 0.05 µM for the first, < 0.05 µM for the second.

`CCNCc1cncc(-c2ccc3[nH]nc(-c4nc(-c5ccc(OC)c(OC)c5)c[nH]4)c3c2)c1C` [Example 33, (5-{3-[4-(3,4-Dimethoxy-phenyl)-1H-imidazol-2-yl]-1H-indazol-5-yl}-4-methyl-pyridin-3-ylmethyl)-ethyl-amine] and `CCNCc1cncc(-c2ccc3[nH]nc(-c4nc(-c5ccc(OC)cc5)c[nH]4)c3c2)c1C` [Example 34, Ethyl-(5-{3-[4-(4-methoxy-phenyl)-1H-imidazol-2-yl]-1H-indazol-5-yl}-4-methyl-pyridin-3-ylmethyl)-amine] cannot be ordered by Ki: < 0.05 µM for the first, < 0.05 µM for the second.

`CCc1nc(-c2n[nH]c3ccc(-c4cncc(N)c4C)cc23)[nH]c1CC` [Example 37, 5-[3-(4,5-Diethyl-1H-imidazol-2-yl)-1H-indazol-5-yl]-4-methyl-pyridin-3-ylamine] and `Cc1c(N)cncc1-c1ccc2[nH]nc(-c3nc(-c4cccc(F)c4)c[nH]3)c2c1` [Example 38, 5-{3-[4-(3-Fluoro-phenyl)-1H-imidazol-2-yl]-1H-indazol-5-yl}-4-methyl-pyridin-3-ylamine] cannot be ordered by Ki: < 0.05 µM for the first, < 0.05 µM for the second.

`Cc1c(N)cncc1-c1ccc2[nH]nc(-c3nc(-c4ccccc4)c[nH]3)c2c1` [Example 39, 4-Methyl-5-[3-(4-phenyl-1H-imidazol-2-yl)-1H-indazol-5-yl]-pyridin-3-ylamine] and `Cc1c(N)cncc1-c1ccc2[nH]nc(-c3nc(-c4ccc(F)cc4)c[nH]3)c2c1` [Example 40, 5-{3-[4-(4-Fluoro-phenyl)-1H-imidazol-2-yl]-1H-indazol-5-yl}-4-methyl-pyridin-3-ylamine] cannot be ordered by Ki: < 0.05 µM for the first, < 0.05 µM for the second.

`CNCc1cncc(-c2ccc3[nH]nc(-c4ncc[nH]4)c3c2)c1C` [Example 45, {5-[3-(1H-Imidazol-2-yl)-1H-indazol-5-yl]-4-methyl-pyridin-3-ylmethyl}-methyl-amine] and `CCNCc1cncc(-c2ccc3[nH]nc(-c4ncc(C(=O)N(CC)CC)[nH]4)c3c2)c1C` [Example 56, N,N-diethyl-2-(5-{5-[(ethylamino)methyl]-4-methylpyridin-3-yl}-1H-indazol-3-yl)-1H-imidazole-5-carboxamide] cannot be ordered by Ki: < 0.05 µM for the first, < 0.05 µM for the second.

`CCNCc1cncc(-c2ccc3[nH]nc(-c4nc(C(=O)N5CCN(C)CC5)c[nH]4)c3c2)c1C` [Example 57, N-{[4-methyl-5-(3-{5-[(4-methylpiperazin-1-yl)carbonyl]-1H-imidazol-2-yl}-1H-indazol-5-yl)pyridin-3-yl]methyl}ethanamine] and `CCNCc1cncc(-c2ccc3[nH]nc(-c4nc(C(=O)NC5CCCC5)c[nH]4)c3c2)c1C` [Example 58, N-cyclopentyl-2-(5-{5-[(ethylamino)methyl]-4-methylpyridin-3-yl}-1H-indazol-3-yl)-1H-imidazole-5-carboxamide] cannot be ordered by Ki: < 0.05 µM for the first, < 0.05 µM for the second.

`CCNCc1cncc(-c2ccc3[nH]nc(-c4ncc(C(=O)N5CCN(c6ccccc6)CC5)[nH]4)c3c2)c1C` [Example 59, N-{[4-methyl-5-(3-{5-[(4-phenylpiperazin-1-yl)carbonyl]-1H-imidazol-2-yl}-1H-indazol-5-yl)pyridin-3-yl]methyl}ethanamine] and `CCNCc1cncc(-c2ccc3[nH]nc(-c4ncc(C(=O)N5C[C@@H](C)O[C@@H](C)C5)[nH]4)c3c2)c1C` [Example 60, N-({5-[3-(5-{[(2R,6S)-2,6-dimethylmorpholin-4-yl]carbonyl}-1H-imidazol-2-yl)-1H-indazol-5-yl]-4-methylpyridin-3-yl}methyl)ethanamine] cannot be ordered by Ki: < 0.05 µM for the first, < 0.05 µM for the second.
